Experimental data as given in ChEMBL document CHEMBL1139385, “Structural analysis of ARC-type inhibitor (ARC-1034) binding to protein kinase A catalytic subunit and rational design of bisubstrate analogue inhibitors of basophilic protein kinases” (J Med Chem, 2009).

What was measured:
[1] = biological target: T1, cAMP-dependent protein kinase catalytic subunit alpha (Homo sapiens, UniProt P17612); test: Inhibition of PKA catalytic subunit alpha using 100 uM ATP and 30 uM TAMRA-kemptide substrate by fluorometric TLC assay
[2] = biological target: T1, cAMP-dependent protein kinase catalytic subunit alpha; test: Binding affinity to PKA catalytic subunit alpha by fluorescence polarization assay
[3] = biological target: RAC-gamma serine/threonine-protein kinase (Homo sapiens, UniProt Q9Y243); test: Inhibition of PKBgamma using 100 uM ATP and 30 uM TAMRA-kemptide substrate by fluorometric TLC assay
Sequence of RAC-gamma serine/threonine-protein kinase (Q9Y243 whole entry): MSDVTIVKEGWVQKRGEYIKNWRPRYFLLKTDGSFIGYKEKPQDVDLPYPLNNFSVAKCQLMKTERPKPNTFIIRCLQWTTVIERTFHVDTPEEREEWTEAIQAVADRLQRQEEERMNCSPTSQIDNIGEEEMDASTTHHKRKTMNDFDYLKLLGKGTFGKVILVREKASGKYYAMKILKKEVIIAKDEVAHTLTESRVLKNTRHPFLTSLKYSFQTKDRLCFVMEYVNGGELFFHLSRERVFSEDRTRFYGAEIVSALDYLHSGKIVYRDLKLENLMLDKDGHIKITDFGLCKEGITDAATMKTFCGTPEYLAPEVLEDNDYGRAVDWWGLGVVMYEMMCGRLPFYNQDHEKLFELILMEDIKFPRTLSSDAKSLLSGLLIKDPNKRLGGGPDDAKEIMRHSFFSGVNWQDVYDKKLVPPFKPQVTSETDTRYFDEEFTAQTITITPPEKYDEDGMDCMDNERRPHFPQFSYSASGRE

[4] = biological target: Rho-associated protein kinase 2 (Bos taurus) (UniProt Q28021); test: Binding affinity to ROCK2 by fluorescence polarization assay
Sequence of Rho-associated protein kinase 2 (Bos taurus) (Q28021 whole entry, looked up): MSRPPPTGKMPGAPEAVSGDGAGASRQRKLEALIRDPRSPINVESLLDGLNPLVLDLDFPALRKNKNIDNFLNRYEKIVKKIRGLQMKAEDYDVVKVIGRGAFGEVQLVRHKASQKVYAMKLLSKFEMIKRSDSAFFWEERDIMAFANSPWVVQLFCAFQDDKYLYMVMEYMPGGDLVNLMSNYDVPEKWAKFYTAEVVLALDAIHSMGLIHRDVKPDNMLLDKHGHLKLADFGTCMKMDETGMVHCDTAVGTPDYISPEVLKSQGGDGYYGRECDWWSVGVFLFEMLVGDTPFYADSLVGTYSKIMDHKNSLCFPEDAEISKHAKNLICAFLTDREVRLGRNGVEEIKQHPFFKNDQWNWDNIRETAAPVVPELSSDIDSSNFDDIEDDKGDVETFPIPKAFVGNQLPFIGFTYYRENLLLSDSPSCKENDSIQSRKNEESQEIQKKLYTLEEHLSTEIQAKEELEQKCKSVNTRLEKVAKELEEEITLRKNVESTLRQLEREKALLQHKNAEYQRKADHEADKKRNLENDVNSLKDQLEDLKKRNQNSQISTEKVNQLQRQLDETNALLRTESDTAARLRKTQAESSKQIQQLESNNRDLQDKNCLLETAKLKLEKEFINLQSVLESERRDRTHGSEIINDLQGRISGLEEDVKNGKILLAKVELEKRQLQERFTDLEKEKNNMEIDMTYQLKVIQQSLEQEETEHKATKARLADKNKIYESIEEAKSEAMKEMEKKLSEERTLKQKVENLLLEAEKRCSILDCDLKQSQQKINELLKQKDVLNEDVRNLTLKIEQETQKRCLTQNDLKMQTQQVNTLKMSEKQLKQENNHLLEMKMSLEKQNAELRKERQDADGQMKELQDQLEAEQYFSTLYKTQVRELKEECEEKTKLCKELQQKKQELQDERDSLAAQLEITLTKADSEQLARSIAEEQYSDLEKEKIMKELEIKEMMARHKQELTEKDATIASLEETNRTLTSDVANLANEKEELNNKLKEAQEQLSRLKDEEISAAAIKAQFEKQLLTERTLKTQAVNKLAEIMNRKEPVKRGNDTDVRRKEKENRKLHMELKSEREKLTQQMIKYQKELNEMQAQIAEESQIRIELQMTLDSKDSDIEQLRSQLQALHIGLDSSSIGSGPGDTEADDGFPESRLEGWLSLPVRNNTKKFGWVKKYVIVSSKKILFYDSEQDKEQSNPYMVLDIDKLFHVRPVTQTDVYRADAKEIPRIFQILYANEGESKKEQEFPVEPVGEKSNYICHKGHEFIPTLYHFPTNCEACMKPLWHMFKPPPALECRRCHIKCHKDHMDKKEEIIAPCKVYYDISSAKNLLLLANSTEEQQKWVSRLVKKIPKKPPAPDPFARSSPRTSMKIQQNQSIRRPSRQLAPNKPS

Compound	IC50 [1] [µM]	Kd [2] [µM]	IC50 [3] [µM]	Kd [4] [µM]
NCCCC[C@@H](NC(=O)CCCCCNC(=O)[C@H]1O[C@@H](n2cnc3c(N)ncnc32)[C@H](O)[C@@H]1O)C(=O)NCCCCCC(=O)N[C@H](CCCN=C(N)N)C(=O)N[C@H](CCCN=C(N)N)C(N)=O	0.054	0.0076	0.774	0.0014
NCCCC[C@H](NC(=O)CCCCCNC(=O)[C@H]1O[C@@H](n2cnc3c(N)ncnc32)[C@H](O)[C@@H]1O)C(=O)NCCCCCC(=O)N[C@H](CCCN=C(N)N)C(=O)N[C@H](CCCN=C(N)N)C(N)=O	–	0.594	–	–
NC(=O)[C@@H](CCCN=C(N)N)NC(=O)[C@@H](CCCN=C(N)N)NC(=O)CCCCCNC(=O)CCCCCNC(=O)[C@H]1O[C@@H](n2cnc3c(N)ncnc32)[C@H](O)[C@@H]1O	–	0.083	–	–
NC(=O)[C@@H](CCCN=C(N)N)NC(=O)[C@@H](CCCN=C(N)N)NC(=O)CCCCCNC(=O)[C@H]1O[C@@H](n2cnc3c(N)ncnc32)[C@H](O)[C@@H]1O	2.6	–	–	–
NC(=O)[C@H](Cc1ccc(C(=O)c2ccccc2)cc1)NC(=O)CCCCCNC(=O)[C@H]1O[C@@H](n2cnc3c(N)ncnc32)[C@H](O)[C@@H]1O	–	> 100	–	–
NC(=O)[C@@H](Cc1ccc(C(=O)c2ccccc2)cc1)NC(=O)CCCCCNC(=O)[C@H]1O[C@@H](n2cnc3c(N)ncnc32)[C@H](O)[C@@H]1O	–	1.96	–	–
N=C(N)NCCC[C@@H](NC(=O)[C@@H](CCCNC(=N)N)NC(=O)CCCNC(=O)CCCCCNC(=O)[C@H]1O[C@@H](n2cnc3c(N)ncnc32)[C@H](O)[C@@H]1O)C(N)=O	–	0.247	–	–
N=C(N)NCCC[C@@H](NC(=O)[C@@H](CCCNC(=N)N)NC(=O)CCCCCCCNC(=O)[C@@H](CCCCN)NC(=O)CCCCCNC(=O)[C@H]1O[C@@H](n2cnc3c(N)ncnc32)[C@H](O)[C@@H]1O)C(N)=O	–	0.0095	–	–
NC(=O)CCCCCNC(=O)[C@H]1O[C@@H](n2cnc3c(N)ncnc32)[C@H](O)[C@@H]1O	26	2.18	> 1000	4.48
NC(=O)CCCNC(=O)OC[C@H]1O[C@@H](n2cnc3c(N)ncnc32)[C@H](O)[C@@H]1O	–	98.7	–	–
NCCCCNC(=O)CCCCCNC(=O)[C@H]1O[C@@H](n2cnc3c(N)ncnc32)[C@H](O)[C@@H]1O	–	1.64	–	–
Nc1ncnc2c1ncn2[C@@H]1O[C@H](C(=O)NCCCCCC(=O)O)[C@@H](O)[C@H]1O	–	55.8	–	–
NCCCNC(=O)CCCCCNC(=O)[C@H]1O[C@@H](n2cnc3c(N)ncnc32)[C@H](O)[C@@H]1O	–	6.05	–	–
C[C@@H](NC(=O)CCCCCNC(=O)[C@@H]1C[C@@H](O)[C@H](n2cnc3c(N)ncnc32)C1)C(=O)NCCCCCC(=O)N[C@H](CCCNC(=N)N)C(=O)N[C@H](CCCNC(=N)N)C(N)=O	0.0211	0.0018	2.04	0.187
NCCCC[C@@H](NC(=O)CCCCCNC(=O)[C@H]1O[C@@H](n2cnc3c(N)ncnc32)[C@H](O)[C@@H]1O)C(=O)NCCCC(=O)N[C@H](CCCN=C(N)N)C(=O)N[C@H](CCCN=C(N)N)C(N)=O	–	0.0126	–	–
NC(=O)[C@@H](CCCN=C(N)N)NC(=O)CCCCCNC(=O)[C@H]1O[C@@H](n2cnc3c(N)ncnc32)[C@H](O)[C@@H]1O	2.1	0.249	1.61	0.0897
C[C@@H](NC(=O)CCCCCNC(=O)[C@H]1O[C@@H](n2cnc3c(N)ncnc32)[C@H](O)[C@@H]1O)C(=O)NCCCCCC(=O)N[C@H](CCCN=C(N)N)C(=O)N[C@H](CCCN=C(N)N)C(N)=O	0.097	0.0058	3.75	0.119
NCCCC[C@@H](NC(=O)CCCCCNC(=O)[C@H]1O[C@@H](n2cnc3c(N)ncnc32)[C@H](O)[C@@H]1O)C(=O)NCCCCCC(=O)N[C@@H](CCCN=C(N)N)C(=O)N[C@@H](CCCN=C(N)N)C(N)=O	–	0.0087	–	–
NC(=O)[C@@H](CCCN=C(N)N)NC(=O)[C@@H](CCCN=C(N)N)NC(=O)CCCCCCCNC(=O)CCCCCNC(=O)[C@H]1O[C@@H](n2cnc3c(N)ncnc32)[C@H](O)[C@@H]1O	–	0.0954	–	–
Nc1ncnc2c1ncn2[C@@H]1O[C@H](C(=O)NCCCCCC(=O)NCCO)[C@@H](O)[C@H]1O	–	18.7	–	–
NC(=O)CCCCCNC(=O)OC[C@H]1O[C@@H](n2cnc3c(N)ncnc32)[C@H](O)[C@@H]1O	–	52.1	–	–
Nc1ncnc2c1ncn2[C@@H]1O[C@H](C(=O)NCCCCCC(=O)NCc2ccccc2)[C@@H](O)[C@H]1O	–	13.5	–	–
NCCNC(=O)CCCCCNC(=O)[C@H]1O[C@@H](n2cnc3c(N)ncnc32)[C@H](O)[C@@H]1O	–	8.23	–	–
NCCCC[C@@H](NC(=O)CCCCCNC(=O)[C@H]1O[C@@H](n2cnc3c(N)ncnc32)[C@H](O)[C@@H]1O)C(N)=O	–	0.443	–	–
NCCCC[C@@H](NC(=O)CCCCCNC(=O)[C@H]1O[C@@H](n2cnc3c(N)ncnc32)[C@H](O)[C@@H]1O)C(=O)NCCCCCC(=O)N[C@H](CCCN=C(N)N)C(=O)N[C@H](CCCN=C(N)N)C(=O)N[C@H](CCCN=C(N)N)C(=O)N[C@H](CCCN=C(N)N)C(N)=O	0.0134	0.0005	0.0566	< 0.001
